# Patent publication US9975857B2, “Inhibition of bacterial biofilms with imidazole-phenyl derivatives” (North Carolina State University, priority 2008, dated 2018)
# Test system: A. baumannii
# Assay: Biofilm inhibition assay (crystal violet, 96-well PVC plate)
# Format: cell-based
# Conditions: Acinetobacter baumannii; LB medium, 37° C., 24 hours, crystal violet OD540; read-out: ACTIVITY against A. baumannii: IC50 (biofilm inhibition)
# Description: Biofilm inhibition assays were performed by taking an overnight culture of bacterial strain and subculturing it at an OD600 of 0.10 into LB medium. The compound being tested was then added at a predetermined concentration and then aliquoted (100 μL) into the wells of a 96-well PVC microtiter plate (Wells not used for samples were filled with 100 μL of de-ionized water). Plates were then wrapped in GLAD Press n' Seal® and incubated under stationary conditions at 37° C. After 24 hours, the media was discarded from the wells and the plates were washed thoroughly with tap water. Plates were then stained with 100 μL of 0.1% solution of crystal violet (CV) and then incubated at an ambient temperature for 30 minutes. Sample plates were then washed with tap water again, and the remaining stain was solubilized with 200 μL of 95% ethanol. Biofilm inhibition was quantitated by measuring the OD540 for each well by transferring 125 μL of the solubilized CV stain into a polystyrene microtiter dish for analysis.
row,Structure (SMILES),IC50 [µM]
1,Nc1ncc(-c2ccc(C#Cc3cc(F)cc(F)c3)cc2)[nH]1,< 50
2,Nc1ncc(-c2ccccc2C#Cc2cccc(Cl)c2)[nH]1,< 50
3,COc1ccc(C#Cc2ccccc2-c2cnc(N)[nH]2)c(C)c1,40 to 50

# Now from value to compound:
row,IC50 [µM],Structure (SMILES)
1,50 to 75,Nc1ncc(-c2ccccc2C#Cc2ccccc2)[nH]1
2,6.54,Nc1ncc(-c2ccc(C#Cc3ccccc3)cc2)[nH]1

# Same assay, conditions: Acinetobacter baumannii; at 100 μM; LB medium, 37° C., 24 hours, crystal violet OD540; read-out: ACTIVITY against A. baumannii: % inhibition (biofilm inhibition)
row,Structure (SMILES),inhibition at 100 µM [%]
1,COc1ccccc1C#Cc1cccc(-c2cnc(N)[nH]2)c1,34
